Legend:
[1] = molecular target: T1, hP2X7R (Homo sapiens, UniProt Q99572); test: BzATP-induced Ca2+ responses in HEK293 cells expressing hP2X7R (FlexStation, Fura-2); type: cell-based; settings: 300 μM BzATP
T1 construct: expressed in transfected cells
T1 sequence (Q99572 1-595): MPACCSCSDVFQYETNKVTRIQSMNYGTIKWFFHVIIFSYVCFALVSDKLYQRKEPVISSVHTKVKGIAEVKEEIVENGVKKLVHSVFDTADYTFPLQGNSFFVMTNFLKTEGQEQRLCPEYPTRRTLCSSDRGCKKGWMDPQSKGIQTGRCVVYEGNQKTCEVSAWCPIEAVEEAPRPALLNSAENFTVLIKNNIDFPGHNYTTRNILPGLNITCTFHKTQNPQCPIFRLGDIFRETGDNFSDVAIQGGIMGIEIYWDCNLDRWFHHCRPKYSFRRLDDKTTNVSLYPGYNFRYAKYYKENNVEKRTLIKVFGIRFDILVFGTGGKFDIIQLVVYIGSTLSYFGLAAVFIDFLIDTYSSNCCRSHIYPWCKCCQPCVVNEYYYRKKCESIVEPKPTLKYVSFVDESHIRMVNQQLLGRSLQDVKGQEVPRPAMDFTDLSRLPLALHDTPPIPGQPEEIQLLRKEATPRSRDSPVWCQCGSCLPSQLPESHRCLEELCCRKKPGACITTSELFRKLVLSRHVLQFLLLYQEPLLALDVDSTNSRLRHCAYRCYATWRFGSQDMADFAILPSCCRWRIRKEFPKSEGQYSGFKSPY
Text: (§1) Human embryonic kidney (HEK) 293 cells stably expressing C-terminally EE-tagged human or rat P2X7R [42], [34], human P2X4R [15] and rat P2X3R [28] were generated in previous studies. A stable HEK293 cell line expressing C-terminally His-tagged human P2X7R was generated in this study and there was no difference in the experimental results using EE-tagged and His-tagged human P2X7R. These cells were maintained in Dulbecco’s Modified Eagle Medium (Life Technologies) supplemented with 10% foetal bovine serum and […] G418 in a tissue culture incubator at 37°C and 5% CO2 under humidified conditions. Cells were cultured in T25 flasks and split (every 3–4 days) once confluent.
FlexStation II and III (Molecular Devices) were used to measure intracellular Ca^2+ concentrations ([Ca^2+]i). Human or rat P2X7R-expressing HEK293 cells were plated in poly-D-lysine-coated 96-well plates (Molecular Devices) with 50,000 cells per well 24 h prior to use. […] Cells were excited at 340 nm and 380 nm alternatively and the emission at 510 nm recorded using a FlexStation. The ratio of fluorescence intensity (F340/F380) was used to indicate the [Ca^2+]i. The basal [Ca^2+]i was recorded for 60 s prior to the exposure to agonist and recording was continued for a further 120 s. […] The maximal changes in F340/F380 (ΔF340/380) were used for quantitative analysis. […]

[2] = molecular target: T2, rP2X7R (Rattus norvegicus, UniProt Q64663); test: BzATP-induced Ca2+ responses in HEK293 cells expressing rP2X7R (FlexStation, Fura-2); type: cell-based; settings: 300 μM BzATP
T2 construct: expressed in transfected cells
T2 sequence (Q64663 1-595): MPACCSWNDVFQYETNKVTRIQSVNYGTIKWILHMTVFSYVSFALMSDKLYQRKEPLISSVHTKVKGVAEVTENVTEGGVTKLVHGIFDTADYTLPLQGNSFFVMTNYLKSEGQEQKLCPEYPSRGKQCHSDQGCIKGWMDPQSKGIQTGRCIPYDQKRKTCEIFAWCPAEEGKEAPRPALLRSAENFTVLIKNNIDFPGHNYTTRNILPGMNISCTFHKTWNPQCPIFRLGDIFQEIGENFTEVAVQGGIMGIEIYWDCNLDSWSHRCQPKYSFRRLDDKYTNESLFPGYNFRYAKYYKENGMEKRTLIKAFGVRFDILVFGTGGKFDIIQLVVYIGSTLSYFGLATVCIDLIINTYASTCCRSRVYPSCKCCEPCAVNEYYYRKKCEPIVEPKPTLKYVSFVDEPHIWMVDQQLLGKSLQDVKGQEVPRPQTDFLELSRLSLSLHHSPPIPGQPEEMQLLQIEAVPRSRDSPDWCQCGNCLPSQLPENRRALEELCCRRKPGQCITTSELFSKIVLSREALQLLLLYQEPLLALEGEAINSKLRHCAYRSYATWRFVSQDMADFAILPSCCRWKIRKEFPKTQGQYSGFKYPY
Text: as §1
FlexStation II and III (Molecular Devices) were used to measure intracellular Ca^2+ concentrations ([Ca^2+]i). Human or rat P2X7R-expressing HEK293 cells were plated in poly-D-lysine-coated 96-well plates (Molecular Devices) with 50,000 cells per well 24 h prior to use. […] Cells were excited at 340 nm and 380 nm alternatively and the emission at 510 nm recorded using a FlexStation. The ratio of fluorescence intensity (F340/F380) was used to indicate the [Ca^2+]i. The basal [Ca^2+]i was recorded for 60 s prior to the exposure to agonist and recording was continued for a further 120 s. […] The maximal changes in F340/F380 (ΔF340/380) were used for quantitative analysis.

[3] = molecular target: T1, hP2X7R; settings: known hP2X7R antagonists; cited from earlier work

Structure (SMILES) | inhibition of BzATP-induced Ca^2+ responses (hP2X7R) ([1]; 200 nM AZ11645373 (Fig. 1 legend)) | inhibition of BzATP-induced Ca^2+ responses (rP2X7R) ([2]; 200 nM AZ11645373 (Fig. 1 legend), compared with BBG) | predicted energy binding score [3] | inhibition at 10 µM ([1]; HEK293, compound at 10 μM, read-out: inhibition of BzATP-induced Ca^2+ responses (hP2X7R)) | inhibition of BzATP-induced Ca^2+ responses (rP2X7R) ([2]; compound at 10 μM)
O=C1CSC(=O)N1C(CCc1ccncc1)COc1ccc(-c2cccc([N+](=O)[O-])c2)cc1 (stereo not shown) [AZ11645373] | 81.9 ± 5% | far less effective | -10.8 kcal/mol |  | 
CCOc1ccc(Nc2ccc(/C(=C3C=C/C(=[N+](/CC)Cc4cccc(S(=O)(=O)[O-])c4)C=C/3C)c3ccc(N(CC)Cc4cccc(S(=O)(=O)O)c4)cc3C)cc2)cc1 [BBG, brilliant blue G] |  |  |  | 71.5 ± 5% | strongly inhibited
CN([C@@H](Cc1ccc(OS(=O)(=O)c2cccc3cnccc23)cc1)C(=O)N1CCN(c2ccccc2)CC1)S(=O)(=O)c1cccc2cnccc12 [KN-62] |  |  | -5.2 kcal/mol |  | 
C[S+]([O-])c1ccc(-c2nc(-c3ccncc3)c(-c3ccc(F)cc3)[nH]2)cc1 (stereo not shown) [SB203580] |  |  | -8.75 kcal/mol |  | 

Reference: article PMC5012888, “Structure-based identification and characterisation of structurally novel human P2X7 receptor antagonists” (Biochemical Pharmacology, 2016)
